The RepoRT retention time repository (doi:10.1021/acs.analchem.2c02893)

Assay: RP, Thermo Scientific Acclaim RSLC 120 C18, 100 × 2.1 mm, 2.2 µm, 30 °C, 0.2 mL/min, estimated dead time 1.1 min; A: 90% water + 10% methanol + 0.01% formic acid + 5 mM ammonium formate, pH 3.61; B: methanol + 0.01% formic acid + 5 mM ammonium formate, pH 3.61; gradient (min/%B) 0/1 1/1 2/39 13/99.9 15/99.9 15.1/1 20.1/1
Conditions: stereoisomer not certain

LC retention time [min]	Structure (SMILES)
6.92	CCCC1CC(C(=O)NC(C(C)Cl)C2OC(SC)C(O)C(O)C2O)N(C)C1 (stereo not drawn) [Clindamycin]
8.51	CNC(=O)Nc1ccc(Cl)c(Cl)c1 [3-4-(dichlorophenyl)-3-methyl urea]
6.98	CC(C)N=C(N)N=C(N)Nc1ccc(Cl)cc1 [Proguanil]
9.96	COc1ccccc1Oc1c(NS(=O)(=O)c2ccc(C(C)(C)C)cc2)nc(-c2ncccn2)nc1OCCO [Bosentan]
7.09	CCOC(=O)Nc1ccc(NCc2ccc(F)cc2)nc1N [Flupirtine]
9.44	CC1CC2C3CCC4=CC(=O)C=CC4(C)C3(F)C(O)CC2(C)C1(O)C(=O)CCl (stereo not drawn) [Clobetasol]
9.55	CCOC(=O)C(CCc1ccccc1)NC(C)C(=O)N1C(C(=O)O)CC2CCCCC21 (stereo not drawn) [Trandolapril]
3.26	CNC(CC(C)C)C(=O)NC1C(=O)NC(CC(N)=O)C(=O)NC2C(=O)NC3C(=O)NC(C(=O)NC(C(=O)O)c4cc(O)cc(O)c4-c4cc3ccc4O)C(O)c3ccc(c(Cl)c3)Oc3cc2cc(c3OC2OC(CO)C(O)C(O)C2OC2CC(C)(N)C(O)C(C)O2)Oc2ccc(cc2Cl)C1O (stereo not drawn) [Vancomycin]
7.84	NN1CC(=O)N2C(Cc3c([nH]c4ccccc34)C2c2ccc3c(c2)OCO3)C1=O (stereo not drawn) [Tadalafil-Amino]
4.64	CCN(CC)C(=O)c1cccnc1 [Nikethamide]
4.31	CCN(CC)CCNC(=O)COc1ccc(OC)cc1 [Mefexamide]
9.09	CCCc1nn(C)c2c(=O)[nH]c(-c3cc(C(=O)CN4CCN(CC)C(=O)C4)ccc3OCC)nc12 [Oxohongdenafil]
2.91	CN(C(=O)CO)c1c(I)c(C(=O)NCC(O)CO)c(I)c(C(=O)NCC(O)CO)c1I (stereo not drawn) [Iomeprol]
4.88	CC1(C)CC1C(=O)NC(=CCCCCSCC(N)C(=O)O)C(=O)O (stereo not drawn) [Cilastatin]
6.99	CCCNCCOc1c(Cl)cc(Cl)cc1Cl
5.29	CCC1(c2ccccc2)C(=O)NCNC1=O [Primidone]
7.01	CC(CN1c2ccccc2Sc2ccc(S(=O)(=O)N(C)C)cc21)N(C)C (stereo not drawn) [Dimetotiazine]

More lines, now with the values behind:

Structure (SMILES)	LC retention time [min]
CC(N)C(O)c1ccccc1 (stereo not drawn) [Cathine / Ephedrine-Nor (Cathin. Phenylpropanolamine)]	3.68
CCCCn1cc(C(=O)c2ccc(C)c3ccccc23)c2ccccc21 [JWH-073-4-Methyl]	12.4
CC(C)(C)NCC(O)c1ccccc1Cl (stereo not drawn) [Tulobuterol]	5.17
COC=C(C(=O)OC)c1ccccc1COc1cccc(C(F)(F)F)n1 [Picoxystrobin]	10.5
CCOP(=S)(OCC)SCCS(=O)(=O)CC [Disulfoton-sulfone]	8.02
COc1cccc(C2(O)CCCCC2C[N+](C)(C)[O-])c1 (stereo not drawn) [Tramadol-N-oxide]	5.24
CCCC(C(=O)c1ccccc1)N1CCCC1 (stereo not drawn) [PVP- Alpha]	5.08
O=C(Nc1cccc2ccccc12)c1cn(CCCCCF)c2ccncc12 [PCN-5F]	11.8
CC=CCC1=C(C)C(OC(=O)C2C(C=C(C)C)C2(C)C)CC1=O (stereo not drawn) [Pyrethrins: Cinerin I]	12.9
CC(=O)Oc1ccc2c(CCN(C(C)C)C(C)C)c[nH]c2c1 [4-AcO-DIPT]	4.88
CC(C)C(NC(=O)c1cn(CCCCCF)c2ccccc12)C(N)=O (stereo not drawn) [ABICA-5F]	8.93
CN(C)CCc1ccc(O)cc1 [Hordenine]	2.28
COc1ccc2c3c1OC1C(O)C=CC4C(C2)N(C)CCC341 (stereo not drawn) [Codeine]	3.4
CCNC(C)C(=O)c1ccc2c(c1)OCO2 (stereo not drawn) [Ethylone]	4.04
CCOC(=O)CCN(SN(C)C(=O)Oc1cccc2c1OC(C)(C)C2)C(C)C [Benfuracarb]	11.9
O=C(O)c1nc(Cl)ccc1Cl [Clopyralid]	3.06
